Laboratory results: patent publication US20040208944A1, “Compositions and methods against inflammatory processes” (priority 2002, published 2004)

Columns and labels:
COX-1 = COX-1 (Homo sapiens, UniProt P23219); experiment: Stressgen StressXpress cyclooxygenase activity kit, COX-1; format: biochemical; settings: for COX-1 activity (RLU): vehicle 4115 RLU
Method: (§1) The Stressgen StressXpress™ cyclooxygenases activity Kit provides a method to measure specifically cyclooxygenases COX-1 and COX-2 in a variety of biological fluids. The kit uses a specific chemiluminescent substrate (aromatic hydrocarbon molecule) to detect the peroxidative activity of COX enzymes. […] Light emission begins immediately and chemiluminescent signal (Relative Luminescence Units—RLU—is measured after 30 minutes (luminometer Tecan). The amount of light emitted is directly proportional to the COX activity.

COX-2 = target: T1, COX-2 (Homo sapiens, UniProt P35354); experiment: Stressgen StressXpress cyclooxygenase activity kit, COX-2; format: biochemical
T1 sequence (P35354 18-604): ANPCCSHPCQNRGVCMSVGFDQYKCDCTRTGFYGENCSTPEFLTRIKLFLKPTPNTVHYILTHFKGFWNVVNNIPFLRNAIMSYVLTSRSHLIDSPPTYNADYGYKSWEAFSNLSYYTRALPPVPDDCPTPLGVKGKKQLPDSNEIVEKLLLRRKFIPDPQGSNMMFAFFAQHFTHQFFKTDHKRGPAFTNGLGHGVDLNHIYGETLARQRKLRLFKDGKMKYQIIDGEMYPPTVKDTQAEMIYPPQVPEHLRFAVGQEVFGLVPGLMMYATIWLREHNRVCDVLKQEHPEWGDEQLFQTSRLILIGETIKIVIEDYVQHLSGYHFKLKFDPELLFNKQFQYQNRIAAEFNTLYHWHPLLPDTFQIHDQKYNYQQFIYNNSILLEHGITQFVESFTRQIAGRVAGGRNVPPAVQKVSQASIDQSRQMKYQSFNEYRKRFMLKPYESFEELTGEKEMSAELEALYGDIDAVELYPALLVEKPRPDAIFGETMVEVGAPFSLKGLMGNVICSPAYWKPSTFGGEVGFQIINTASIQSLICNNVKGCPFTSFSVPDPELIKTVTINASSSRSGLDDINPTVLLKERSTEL
Method: as §1

[1] = system: COX-2 expression in HT29 cells; experiment: Western blot of COX-2 expression in HT 29 cells; format: cell-based, human; settings: FIG. 1
Method: Western blot analysis: cells lysate were prepared by treating HT 29 cells (treated as above for PGE-2 determinations, i.e. in presence or absence of TNF-alpha and with or without α-CH2-γ-butyrolactone) with lysis buffer (150 mM NaCl, 10 mM Tris HCl pH 8, 1% Tween 20, EDTA pH 8 1 mM, proteases inhibitors, PEFA, (Merck), DETC (Aldrich)). Lysates were sonicated for 5 s, and centrifugated at 10000 g for 5 min. Proteins concentration were estimated by the Bradford method which was standardized using bovine serum albumine.
Whole cell extracts (25 μg) were boiled in Laemmli sample buffer and resolved by SDS-PAGE on 10% gel using the discontinuous polyacrylamide gel system. Non specific binding sites were blocked by incubating the membrane in 5% dried milk phosphate buffered saline solution containing 0.1% of tween-20 overnight at 4° C. Blots were hybridized in a 1:1000 dilution of a goat polyclonal anti COX-2 and also COX-1 antibody (C-20, Santa Cruz Biotechnology) in 5% milk PBS for 1 h at room temperature followed by 1 h of washing in 1% milk PBS. Subsequently, blots were probed with a secondary donkey anti-goat antibody horseradish peroxidase conjugated. After washing for 1 h, the complex was detected using ECL Western blotting reagents (Amersham)

HT 29 cells = experiment: PGE2 synthesis in HT29 cells treated with α-CH2-γ-butyrolactone with and without TNF-α; format: cell-based, human; settings: for pg PGE2/ml of medium + TNF-α / PGE2 % of control − TNF-α / pg PGE2/ml of medium − TNF-α: 21 h; for pg PGE2/ml of medium + TNF-α / PGE2 % of control + TNF-α: TNF-α 10 ng/ml for 6 h; for PGE2 % of control − TNF-α / pg PGE2/ml of medium − TNF-α: without TNF-α; for PGE2 % of control + TNF-α: relative to methanol control without TNF-α (control + TNF-α = 730)
Method: To this end, cells were cultured and passed in Mc Coy's 5A medium supplemented with arachidonic acid ([…]) and bovine serum albumin (0.01%). Cells were treated by alpha-methylen-gamma-butyrolactone (dissolved in methanol) at the following doses: 15, 30, 60 microM or by solvent alone during 21 h including or not stimulation with TNF-alpha (10 ng/ml) for 6 h. PGE2 analysis was performed using an Elisa test on a medium sample.

Chain of COX-1 (P23219 24-599): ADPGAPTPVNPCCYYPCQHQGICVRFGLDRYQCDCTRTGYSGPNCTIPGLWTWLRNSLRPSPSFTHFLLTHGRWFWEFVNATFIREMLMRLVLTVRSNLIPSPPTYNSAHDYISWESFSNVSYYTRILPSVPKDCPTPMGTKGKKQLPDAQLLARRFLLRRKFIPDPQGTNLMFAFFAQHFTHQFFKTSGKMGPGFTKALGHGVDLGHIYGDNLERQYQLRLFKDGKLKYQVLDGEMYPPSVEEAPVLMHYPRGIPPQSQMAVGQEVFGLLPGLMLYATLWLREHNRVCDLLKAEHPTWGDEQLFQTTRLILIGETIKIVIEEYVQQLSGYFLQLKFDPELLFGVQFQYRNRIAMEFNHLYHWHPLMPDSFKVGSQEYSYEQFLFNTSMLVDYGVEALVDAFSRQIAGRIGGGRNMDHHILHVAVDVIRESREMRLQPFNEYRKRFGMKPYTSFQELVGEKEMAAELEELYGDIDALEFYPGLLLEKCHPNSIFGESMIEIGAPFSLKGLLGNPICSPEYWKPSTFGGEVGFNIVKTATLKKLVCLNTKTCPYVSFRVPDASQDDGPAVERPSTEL

Row | COX-1 activity % of control (COX-1; 1 mM) | COX-1 activity (RLU) (COX-1; 1 mM) | Structure (SMILES) | COX-2 activity % of control (COX-2; 40 μM) | COX-2 activity (RLU) (COX-2; 40 μM, vehicle 26450 RLU) | inhibition of COX-2 activity (in words) (COX-2; cyclooxygenase activity kit) | COX-2 expression (Western blot, in words) [1] | COX-1 activity % of control (COX-1; 40 μM) | COX-1 activity (RLU) (COX-1; 40 μM) | pg PGE2/ml of medium + TNF-α (HT 29 cells; 15 μM) [pg/mL] | PGE2 % of control − TNF-α (HT 29 cells; 15 μM) | pg PGE2/ml of medium − TNF-α (HT 29 cells; 15 μM) [pg/mL] | PGE2 % of control + TNF-α (HT 29 cells; 15 μM) | pg PGE2/ml of medium + TNF-α (HT 29 cells; 30 μM) [pg/mL] | PGE2 % of control − TNF-α (HT 29 cells; 30 μM) | pg PGE2/ml of medium − TNF-α (HT 29 cells; 30 μM) [pg/mL] | PGE2 % of control + TNF-α (HT 29 cells; 30 μM) | pg PGE2/ml of medium + TNF-α (HT 29 cells; 60 μM) [pg/mL] | PGE2 % of control − TNF-α (HT 29 cells; 60 μM) | pg PGE2/ml of medium − TNF-α (HT 29 cells; 60 μM) [pg/mL] | PGE2 % of control + TNF-α (HT 29 cells; 60 μM)
1 | 99 % of control | 4063 | CS(=O)(=O)Nc1ccc([N+](=O)[O-])cc1OC1CCCCC1 [NS-398, reference compound] |  |  |  |  |  |  |  |  |  |  |  |  |  |  |  |  |  | 
2 |  |  | C=C1CCOC1=O [α-CH2-γ-butyrolactone, α-methylene-γ-butyrolactone] | 49 % of control | 12823 | inhibit specifically and with high potency COX-2 activity | inhibition of COX-2 expression | 117 % of control | 4807 | 13286 | 108 % of control | 2814 | 512 % of control | 9349 | 76 % of control | 1970 | 360 % of control | 1310 | 14 % of control | 1144 | 50 % of control
